Data taken from PMC2228184 (British Journal of Cancer, 1997).
Read-outs that look alike come from different tables or passages of the source.

Tests used:
[1] = tested on: patients with advanced solid tumours; settings: human, in vivo
Description: (§1) Topoisomerases are essential nuclear enzymes that alter the topology of DNA during DNA metabolism by cleavage of DNA strands, strand passage and religation (Wang, 1985). Two major topoisomerases, types I and H, have been identified in all mammalian cells, and induce single- and double-strand breaks respectively. […] They have different sites of binding DNA and play a different role in the cell cycle. Received 15 November 1996 Revised 19 February 1997 Accepted 10April 1997 Correspondence to: VMM Herben, Slotervaart Hospital, Department of Pharmacy and Pharmacology, Louwesweg 6, 1066 EC Amsterdam, The Netherlands Topotecan (Hycamtin), a semisynthetic water-soluble derivative of camptothecin, was the first topoisomerase I-targeting drug to undergo clinical testing since the discontinuation of the clinical development of sodium camptothecin in the early 1970s. […] In view of topotecan's unique mechanism of action and important anti-tumour effects as single agent, recent studies have focused on combination therapies with other effective anti- cancer agents. The combination of topoisomerase I inhibitors with topoiso- merase II poisons is in theory an attractive strategy. As resistance to inhibition of one class of topoisomerase enzymes is accompa- nied with an elevated sensitivity to the other class of topoiso- merase inhibitors in vitro (Tan et al, 1989; Sugimoto et al, 1990), a combined administration regimen of inhibitors of both topoiso- merases could effectively kill tumour cells. […] The recommended dose for this schedule is 1.5 mg m-2 day-1 (Rowinsky et al, 1991; Verweij et al, 1993). […] Other eligibility criteria included a Zubrod-ECOG-WHO performance status < 2, anticipated life expectancy of 2 3 months and age 2 18 years. Previous anti-cancer chemotherapy had to be discontinued for at least 4 weeks before entry into the study or 6 weeks in cases of pretreatment with a nitrosourea or mitomycin C. All patients had acceptable bone marrow function white blood cell (WBC) ? […]

[2] = ref Clark et al, 1989; cited from earlier work
[3] = tested on: patients with advanced solid tumours; settings: both, human, in vivo
Description: 0.3 h. […] 2.7 1 h-1 m-2 with a steady-state volume of distribution of 36.7 ? 6.2 I m-2. […] 1.0 h after infusion. […] 0.54 and 1.23 ? […] 1.2 and 2.3 ? 1.0 h after ingestion of 20 and 40 mg respectively. […] Other eligibility criteria included a Zubrod-ECOG-WHO performance status < 2, anticipated life expectancy of 2 3 months and age 2 18 years. Previous anti-cancer chemotherapy had to be discontinued for at least 4 weeks before entry into the study or 6 weeks in cases of pretreatment with a nitrosourea or mitomycin C. All patients had acceptable bone marrow function white blood cell (WBC) ? 4 x 10^9 1-1 and platelets 2 100 x 109 11; normal hepatic function, serum bilirubin < 1.5 mg dl-' (25 pmol 1-1) and other liver function tests < twice the normal upper limit or < five times when related to liver metastases, prothrombin or thrombotest within normal limits; normal renal function, serum creatinine < 1.4 mg dl-1 (120 gmol 1-1). The study protocol was approved by the Medical Ethics Committee of the hospital, and all patients gave written informed consent. Treatment plan and study design Topotecan (SmithKline Beecham Pharmaceuticals, King of Prussia, PA, USA) was supplied by the National Cancer Institute as a lyophilized light yellow powder in vials containing 5 mg of topotecan (as the free base), 60 mg of mannitol, 25 mg of tartaric acid and 2 M hydrochloric acid and/or 0.05 M sodium hydroxide for pH adjustment to 3.0. The content of each vial was reconsti- tuted with 2 ml of sterile water for injection, USP, yielding a 2.5 mg ml-1 solution of topotecan. The appropriate dosage of the drug was diluted in 50 or 100 ml of 0.9% sodium chloride and was administered intravenously over 30 min by a syringe pump.

[4] = Plasma pharmacokinetics of etoposide after oral administration (HPLC); settings: human
Description: Topoisomerases are essential nuclear enzymes that alter the topology of DNA during DNA metabolism by cleavage of DNA strands, strand passage and religation (Wang, 1985). Two major topoisomerases, types I and H, have been identified in all mammalian cells, and induce single- and double-strand breaks respectively. […] They have different sites of binding DNA and play a different role in the cell cycle. Received 15 November 1996 Revised 19 February 1997 Accepted 10April 1997 Correspondence to: VMM Herben, Slotervaart Hospital, Department of Pharmacy and Pharmacology, Louwesweg 6, 1066 EC Amsterdam, The Netherlands Topotecan (Hycamtin), a semisynthetic water-soluble derivative of camptothecin, was the first topoisomerase I-targeting drug to undergo clinical testing since the discontinuation of the clinical development of sodium camptothecin in the early 1970s. […] In view of topotecan's unique mechanism of action and important anti-tumour effects as single agent, recent studies have focused on combination therapies with other effective anti- cancer agents. The combination of topoisomerase I inhibitors with topoiso- merase II poisons is in theory an attractive strategy. As resistance to inhibition of one class of topoisomerase enzymes is accompa- nied with an elevated sensitivity to the other class of topoiso- merase inhibitors in vitro (Tan et al, 1989; Sugimoto et al, 1990), a combined administration regimen of inhibitors of both topoiso- merases could effectively kill tumour cells. […] The recommended dose for this schedule is 1.5 mg m-2 day-1 (Rowinsky et al, 1991; Verweij et al, 1993). […] Other eligibility criteria included a Zubrod-ECOG-WHO performance status < 2, anticipated life expectancy of 2 3 months and age 2 18 years. Previous anti-cancer chemotherapy had to be discontinued for at least 4 weeks before entry into the study or 6 weeks in cases of pretreatment with a nitrosourea or mitomycin C. All patients had acceptable bone marrow function white blood cell (WBC) ? […] The study protocol was approved by the Medical Ethics Committee of the hospital, and all patients gave written informed consent. Treatment plan and study design Topotecan (SmithKline Beecham Pharmaceuticals, King of Prussia, PA, USA) was supplied by the National Cancer Institute as a lyophilized light yellow powder in vials containing 5 mg of topotecan (as the free base), 60 mg of mannitol, 25 mg of tartaric acid and 2 M hydrochloric acid and/or 0.05 M sodium hydroxide for pH adjustment to 3.0. The content of each vial was reconsti- tuted with 2 ml of sterile water for injection, USP, yielding a 2.5 mg ml-1 solution of topotecan. The appropriate dosage of the drug was diluted in 50 or 100 ml of 0.9% sodium chloride and was administered intravenously over 30 min by a syringe pump. […]

[5] = tested on: patients; settings: cited from earlier work
[6] = clinical; settings: human, in vivo
Description: Topoisomerases are essential nuclear enzymes that alter the topology of DNA during DNA metabolism by cleavage of DNA strands, strand passage and religation (Wang, 1985). Two major topoisomerases, types I and H, have been identified in all mammalian cells, and induce single- and double-strand breaks respectively. […] They have different sites of binding DNA and play a different role in the cell cycle. Received 15 November 1996 Revised 19 February 1997 Accepted 10April 1997 Correspondence to: VMM Herben, Slotervaart Hospital, Department of Pharmacy and Pharmacology, Louwesweg 6, 1066 EC Amsterdam, The Netherlands Topotecan (Hycamtin), a semisynthetic water-soluble derivative of camptothecin, was the first topoisomerase I-targeting drug to undergo clinical testing since the discontinuation of the clinical development of sodium camptothecin in the early 1970s. […] In view of topotecan's unique mechanism of action and important anti-tumour effects as single agent, recent studies have focused on combination therapies with other effective anti- cancer agents. The combination of topoisomerase I inhibitors with topoiso- merase II poisons is in theory an attractive strategy. As resistance to inhibition of one class of topoisomerase enzymes is accompa- nied with an elevated sensitivity to the other class of topoiso- merase inhibitors in vitro (Tan et al, 1989; Sugimoto et al, 1990), a combined administration regimen of inhibitors of both topoiso- merases could effectively kill tumour cells. […] The recommended dose for this schedule is 1.5 mg m-2 day-1 (Rowinsky et al, 1991; Verweij et al, 1993). […] Other eligibility criteria included a Zubrod-ECOG-WHO performance status < 2, anticipated life expectancy of 2 3 months and age 2 18 years. Previous anti-cancer chemotherapy had to be discontinued for at least 4 weeks before entry into the study or 6 weeks in cases of pretreatment with a nitrosourea or mitomycin C. All patients had acceptable bone marrow function white blood cell (WBC) ? […] The study protocol was approved by the Medical Ethics Committee of the hospital, and all patients gave written informed consent. Treatment plan and study design Topotecan (SmithKline Beecham Pharmaceuticals, King of Prussia, PA, USA) was supplied by the National Cancer Institute as a lyophilized light yellow powder in vials containing 5 mg of topotecan (as the free base), 60 mg of mannitol, 25 mg of tartaric acid and 2 M hydrochloric acid and/or 0.05 M sodium hydroxide for pH adjustment to 3.0. The content of each vial was reconsti- tuted with 2 ml of sterile water for injection, USP, yielding a 2.5 mg ml-1 solution of topotecan. The appropriate dosage of the drug was diluted in 50 or 100 ml of 0.9% sodium chloride and was administered intravenously over 30 min by a syringe pump. […] The regimen was intended to be repeated every 4 weeks. This could be changed during the study to either shorter or longer intervals depending on bone marrow recovery. Doses were escalated in an alternating way according to the scheme in Table 1. […] Treatment cycles were to be repeated at 3-week intervals. Patients were scheduled to receive at least two courses.

[7] = Pharmacokinetics of N-desmethyltopotecan after 30-min infusion of topotecan; format: in vivo, human
Description: as §1

[8] = design: method as in Johnson and Wood, personal communication; settings: ref Johnson and Wood, personal communication; cited from earlier work

COc1cc([C@@H]2c3cc4c(cc3[C@@H](O[C@@H]3O[C@@H]5CO[C@@H](C)O[C@H]5[C@H](O)[C@H]3O)[C@H]3COC(=O)[C@H]23)OCO4)cc(OC)c1O [etoposide]
correlation of pharmacokinetics (AUC, Cmax) or total dose with haematological toxicity [1]: did not yield any significant relationship | peak plasma concentrations associated with significant toxicity [2]: above 17 μmol l-1 | recommended dose for phase II clinical trials [3]: 40 mg bid | Cmax ([4]; 20 mg): 750 ± 540 nM | Tmax ([4]; 20 mg): 2.4 ± 1.2 h | Cmax ([4]; 40 mg): 1230 ± 570 nM | Tmax ([4]; 40 mg): 2.3 ± 1 h

CC[C@@]1(O)C(=O)OCc2c1cc1n(c2=O)Cc2cc3c(CN(C)C)c(O)ccc3nc2-1 [topotecan]
dose associated with a 50% decrease in ANC (D50) ([1]; both): 0.6 mg m-2 day-1 | recommended dose, single agent ([5]; 30-min daily times five infusion every 3 weeks, ref Rowinsky et al, 1991, Verweij et al, 1993): 1.5 mg m-2 day-1 | AUC50 (AUC associated with 50% decrease in ANC) ([5]; preceding single-agent phase I trial, Figure 2, ref Van Warmerdam et al, 1995): 79.2 h/nmol/L | recommended dose, single agent ([5]; previously treated patients, ref Saltz et al (1993)): 1.25 mg m-2 daily | recommended dose, single agent ([5]; previously untreated patients, ref Saltz et al (1993)): 1.5 mg m-2 daily | courses resulting in grades III or IV leucocytopenia and neutropenia ([5]; single agent 1.5 mg m-2 day-1, ref Rowinsky et al, 1991, Verweij et al, 1993): approximately 75% | dose that could be given in combination, % of the single-agent dosage [3]: 67-83% | recommended dose for phase II clinical trials [3]: 1.0 mg m-2 | half-life ([6]; both, iv): 2.1 ± 0.3 h | alpha half-life [6]: 3.8 ? 3.2 min | CL ([6]; 0.5 mg): 14.9 ? 1.8 l h-1 m-2 | Vss ([6]; 0.5 mg): 34.0 ? 2.6 l m-2 | t1/2 ([6]; 0.5 mg): 1.9 ? 0.1 h | CL ([6]; 1 mg): 13.4?2.6 l h-1 m-2 | Vss ([6]; 1 mg): 36.4?5.2 l m-2 | t1/2 ([6]; 1 mg): 2.2?0.3 h | CL ([6]; 1.25 mg): 15.6 ? 4.0 l h-1 m-2 | Vss ([6]; 1.25 mg): 33.7 ? 6.7 l m-2 | percentage of the administered dose recovered in the urine ([6]; 24 h): 41 ? 10% | percentage of the administered dose recovered in the urine, range ([6]; 24 h): 25-7 1 | terminal (beta) half-life ([6]; iv): 2.1 ? 0.3 h

CC[C@@]1(O)C(=O)OCc2c1cc1n(c2=O)Cc2cc3c(CNC)c(O)ccc3nc2-1 [N-desmethyltopotecan]
relation of AUC(t) to myelosuppression [1]: not related | additional excretion in the urine as the metabolite ([7]; 24 to 48 hours after the fifth daily infusion, four patients): 0.4% | metabolite-to-topotecan ratio of maximal plasma levels ([7]; all dose levels): 0.5% | metabolite-to-topotecan AUC(t) ratio ([7]; all dose levels, up to 6 h post-infusion): 0.012 | anti-tumour activity compared with the parent compound [8]: slightly less anti-tumour activity
